Converted amounts (≈) assume the structure as drawn.
Columns and labels:
[1] = Aqueous solubility of the compound; type: physicochemical
[2] = tested on: HepG2; assay: Cytotoxicity against human HepG2 cells by MTT assay; type: functional, cell-based

| Structure (SMILES) | solubility [1] [µg/mL] | IC50 [2] [µM] |
| --- | --- | --- |
| COC1=C2C[C@@H](C)C[C@H](OC)[C@H](O)[C@@H](C)/C=C(\C)[C@H](OC(N)=O)[C@@H](OC)/C=C\C=C(/C)C(=O)NC(=C([C@H](OC)C(=O)C[C@@H](C)O)C1=O)C2=O | 15400 (≈ 22.3 mM) | 14.6 |
| COC1=C2C[C@@H](C)C[C@H](OC)[C@H](O)[C@@H](C)/C=C(\C)[C@H](OC(N)=O)[C@@H](OC)CC/C=C(\C)C(=O)NC(=C([C@H](OC)C(=O)C[C@@H](C)O)C1=O)C2=O | 7700 (≈ 11.1 mM) | 22.4 |
| COC1=C2C[C@@H](C)C[C@H](OC)[C@H](O)[C@@H](C)/C=C(\C)[C@H](OC(N)=O)[C@@H](OC)/C=C\C=C(/C)C(=O)NC(=CC1=O)C2=O [GELDANAMYCIN] | 2 (≈ 0.00357 mM) | 0.3 |
